“And” between values parts separate entries of the source, which are not always exact repeats. Equal values may be shown once.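 48-hour exposure; five concentrations; linearly interpolated endpoints. GI50 = concentration required for 50% inhibition of growth. At the TGI there is no net growth.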
Tests used:
Assay in all cases: DTP human tumour cell line panel, 48 h
ACHN renal = system: ACHN renal
EKVX NSCLC = system: EKVX NSCLC
HOP-92 NSCLC = system: HOP-92 NSCLC
MCF7 breast = system: MCF7 breast
NCI/ADR-RES ovarian = system: NCI/ADR-RES ovarian
OVCAR-4 ovarian = system: OVCAR-4 ovarian
SF-295 CNS = system: SF-295 CNS
SN12C renal = system: SN12C renal
SW-620 colon = system: SW-620 colon
UO-31 renal = system: UO-31 renal

SMILES	GI50 (ACHN renal)	TGI (ACHN renal)	GI50 (EKVX NSCLC)	TGI (EKVX NSCLC)	TGI (HOP-92 NSCLC)	GI50 (MCF7 breast)	TGI (MCF7 breast)	GI50 (NCI/ADR-RES ovarian)	TGI (NCI/ADR-RES ovarian)	GI50 (OVCAR-4 ovarian)	TGI (OVCAR-4 ovarian)	GI50 (SF-295 CNS)	TGI (SF-295 CNS)	GI50 (SN12C renal)	TGI (SN12C renal)	TGI (SW-620 colon)	GI50 (UO-31 renal)	TGI (UO-31 renal)	GI50 (HOP-92 NSCLC)	GI50 (SW-620 colon)
CCC1(O)C(=O)OCc2c1cc1n(c2=O)Cc2cc3ccc(C=O)cc3nc2-1 (stereo not given)	1730 nM	38900 nM and 5510 nM	15100 nM	50000 nM and > 100000 nM	42000 nM and 84400 nM	187 nM	50000 nM and 10600 nM	1330 nM	6730 nM and 12600 nM	10300 nM	50000 nM and 23600 nM	2070 nM	50000 nM and 52600 nM	1390 nM	50000 nM and 7530 nM	50000 nM and > 100000 nM	1080 nM	5140 nM and 7980 nM	–	–
CCC#CC[C@H]1C/C=C2/C(=O)C=C[C@@H]2C/C=C\CCCC(=O)O1	763 nM	1560 nM	1900 nM	7420 nM	6330 nM	203 nM	5820 nM	1010 nM	17200 nM	1500 nM	7940 nM	1430 nM	4360 nM	954 nM	2780 nM	4150 nM	730 nM	1560 nM	1940 nM	642 nM
CCN(CC)CCN1CC(O)=C(c2nc(-c3ccc(Cl)cc3)cs2)C1=N	3140 nM	12000 nM	9360 nM	33900 nM	8650 nM	1420 nM	3360 nM	9120 nM	> 100000 nM	18300 nM	> 100000 nM	1800 nM	3490 nM	5250 nM	> 100000 nM	3800 nM	3830 nM	20200 nM	1490 nM	1910 nM
COc1ccc2c(c1)C(=O)c1c-2n(CCCn2ccnc2)c(=O)c2ccccc12	144 nM	1040 nM	1510 nM	11900 nM	> 23200 nM	24.1 nM	1840 nM	634 nM	5920 nM	1330 nM	> 100000 nM	101 nM	2130 nM	692 nM	> 100000 nM	7590 nM	86.7 nM	476 nM	1030 nM	247 nM
CCN(CC)c1sc(N(CC)CC)c2c1SSSSS2	1070 nM	3280 nM	1840 nM	5540 nM	5920 nM	1080 nM	–	890 nM	2530 nM	697 nM	2460 nM	2090 nM	4040 nM	315 nM	866 nM	1140 nM	867 nM	2880 nM	2870 nM	132 nM
Nc1ncc(-c2cnn(CCO)c2)c2scc(-c3ccc(NC(=O)Nc4cccc(F)c4)cc3)c12	289 nM	4750 nM	–	–	733 nM	226 nM	3700 nM	2500 nM	20100 nM	299 nM	11400 nM	< 37.3 nM	762 nM	186 nM	6590 nM	3740 nM	219 nM	1980 nM	227 nM	179 nM

Reference: PubChem BioAssay (NCI)
